Assay results: US7125986B2, “Penicillanic acid derivative compounds and methods of making” (Southern Methodist University Foundation for Research, priority 1997, dated 2006)
Structures can show the parent of a compound that is named as a salt. Where two headings read alike, the source gives them in different places.

Tests used:
[1] = target: β-lactamase of Enterobacter cloacae P99 (Enterobacter cloacae, UniProt P05364); assay: β-lactamase inhibition, nitrocefin hydrolysis (P99); type: biochemical; details: for β-lactamase inhibiting activity greater than compound 9 by a factor, P99: factor relative to compound 9
Description: (§1) The IC50 value of each compound was determined as follows. Following a 10 minute incubation of a dilute solution of enzyme (2.56 nM) and inhibitor (<0.64 μM), a 50 μL aliquot of the incubation mixture was further diluted into 1 mL nitrocefin (a substrate) solution, and the rate of hydrolysis was measured during a 1 minute period by monitoring the absorbance of nitrocefin as a function of time.

TEM-1 β-lactamase = TEM-1 β-lactamase (Escherichia coli, UniProt P62593); assay: β-lactamase inhibition, nitrocefin hydrolysis (TEM-1); type: biochemical
Description: as §1

[2] = 10 minute incubation of enzyme (2.56 nM) and inhibitor, nitrocefin substrate, read-out: IC50 (uM) Ent. cloacae P99
[3] = 10 minute incubation of enzyme (2.56 nM) and inhibitor, nitrocefin substrate, read-out: IC50 (uM) TEM-1

β-lactamase of Enterobacter cloacae P99, sequence (P05364 21-381): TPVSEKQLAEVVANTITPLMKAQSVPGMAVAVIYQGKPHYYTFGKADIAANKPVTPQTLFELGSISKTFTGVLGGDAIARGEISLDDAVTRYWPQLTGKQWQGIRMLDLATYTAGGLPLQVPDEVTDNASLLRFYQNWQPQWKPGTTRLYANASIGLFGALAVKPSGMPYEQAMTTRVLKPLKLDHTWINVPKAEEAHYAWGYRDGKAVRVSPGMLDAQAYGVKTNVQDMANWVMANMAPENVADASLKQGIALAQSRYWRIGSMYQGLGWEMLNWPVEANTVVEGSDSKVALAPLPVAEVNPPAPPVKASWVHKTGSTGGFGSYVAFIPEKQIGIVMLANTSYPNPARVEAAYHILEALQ
TEM-1 β-lactamase, sequence (P62593 24-286 limits assumed): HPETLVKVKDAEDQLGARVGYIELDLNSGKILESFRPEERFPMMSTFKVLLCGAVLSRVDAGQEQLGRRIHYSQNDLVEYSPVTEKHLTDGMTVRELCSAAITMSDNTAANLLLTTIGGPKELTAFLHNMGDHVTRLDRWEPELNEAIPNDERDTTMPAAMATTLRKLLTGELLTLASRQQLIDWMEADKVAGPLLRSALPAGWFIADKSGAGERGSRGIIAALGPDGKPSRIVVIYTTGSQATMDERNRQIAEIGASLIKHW

Row | SMILES | IC50 [1, 2] | IC50 (TEM-1 β-lactamase; [3]) | also measured
1 | CC(C)(C)OC(=O)/C=C1/C(=O)N2[C@@H](C(=O)O)[C@](C)(CCl)S(=O)(=O)[C@H]12 [Compound 12a, Sodium salt of 2β-(chloromethyl)-6-[(Z)-(t-butoxycarbonyl)methylene]-penicillinic acid 1,1 dioxide] | 7.62 µM | 39 µM | –
2 | CC(=O)OCC1(C)C(C(=O)O)N2C(=O)C(=Cc3ccccn3)C2S1(=O)=O (stereo not drawn) [Compound 29a, Sodium 2β-(acetoxymethyl)-1,1-dioxo-6-[(Z)-2′-pyridylmethylene]penicillinate] | 0.062 µM | 0.004 µM | β-lactamase inhibiting activity against P99 (in words) [1]: potent; β-lactamase inhibiting activity against TEM-1 (in words) (TEM-1 β-lactamase): potent
3 | CC1(COC(=O)CCl)C(C(=O)O)N2C(=O)C(=CC(=O)O)C2S1(=O)=O (stereo not drawn) [Compound 8b, Disodium salt of 2β-(chloroacetoxymethyl)-6-[(Z)-carboxymethylene]-penicillinate 1,1-dioxide] | – | 0.19 µM | –
4 | COC(=O)/C=C1/C(=O)N2[C@@H](C(=O)O)[C@](C)(COC(=O)CSc3nnnn3C)S(=O)(=O)[C@H]12 [Compound 8h, Sodium salt of 2β-[[(1-methyl-1H-tetrazol-5-yl)thio]acetoxymethyl]-6-[(Z)-(methoxycarbonyl)methylene]penicillinate 1,1-dioxide] | 3.69 µM | – | –
5 | COC(=O)/C=C1/C(=O)N2[C@@H](C(=O)O)[C@](C)(CCl)S(=O)(=O)[C@H]12 [Compound 12b, Sodium salt of 2β-(chloromethyl)-6-[(Z)-(methoxycarbonyl)methylene]-penicillanic acid 1,1 dioxide] | 6.96 µM | – | –
6 | CC1(CCl)C(C(=O)O)N2C(=O)/C(=C/C(=O)O)C2S1(=O)=O (stereo not drawn) [Compound 12c, Disodium salt of 2β-(chloromethyl)-6-[(Z)-carboxymethylene]penicillinate 1,1-dioxide] | 105 µM | 120 µM | –
7 | COC(=O)C=C1C(=O)N2C(C(=O)O)C(C)(COC(C)=O)S(=O)(=O)C12 (stereo not drawn) [Compound 8e, Sodium salt of 2β-(acetoxymethyl)-6-[(Z)-(methoxycarbonyl)methylene]-penicillinic acid 1,1 dioxide] | 2.66 µM | – | –
8 | Cn1nnnc1SCC(=O)OCC1(C)C(C(=O)O)N2C(=O)C(=CC(=O)O)C2S1(=O)=O (stereo not drawn) [Compound 8g, Disodium salt of 2β-[[(1-methyl-1H-tetrazol-5-yl)thio]acetoxymethyl]-6-[(Z)-carboxymethylene]penicillinate 1,1-dioxide] | 0.64 µM | 0.23 µM | –
9 | CC(=O)OC[C@@]1(C)[C@H](C(=O)O)N2C(=O)/C(=C/C(=O)O)[C@H]2S1(=O)=O [Compound 8a, Disodium salt of 2β-(acetoxymethyl)-6-[(Z)-carboxymethylene]-penicillinic acid-1,1-dioxide] | 0.383 µM | 0.213 µM | β-lactamase inhibiting activity greater than compound 9 by a factor, P99 [1]: ~2
10 | C[C@]1(COC(=O)Cc2ccccc2)[C@H](C(=O)O)N2C(=O)/C(=C/C(=O)O)[C@H]2S1(=O)=O [Compound 8d, Disodium salt of 2β-(phenylacetoxymethyl)-6-[(Z)-carboxymethylene]-penicillinate 1,1-dioxide] | – | – | IC50 [1]: 0.54 µM; IC50 (TEM-1 β-lactamase): 0.015 µM
11 | C[C@]1(COC=O)[C@H](C(=O)O)N2C(=O)/C(=C/C(=O)O)[C@H]2S1(=O)=O [Compound 8c, Disodium salt of 2β-(formyloxymethyl)-6-[(Z)-carboxymethylene]-penicillinate 1,1-dioxide] | 0.3 µM | – | β-lactamase inhibiting activity greater than compound 9 by a factor, P99 [1]: ~2
12 | C[C@]1(COC(=O)Cc2ccccc2)[C@H](C(=O)O)N2C(=O)/C(=C/c3ccccn3)[C@H]2S1(=O)=O [Compound 29b, Sodium 1,1-Dioxo-2β-(phenylacetoxy)methyl-6-[(Z)-2′-pyridylmethylene]penicillinate] | – | – | β-lactamase inhibiting activity against P99 (in words) [1]: potent; IC50 (TEM-1 β-lactamase): 0.39 µM; β-lactamase inhibiting activity against TEM-1 (in words) (TEM-1 β-lactamase): potent
13 | C[C@]1(C=CC#N)[C@H](C(=O)O)N2C(=O)/C(=C/C(=O)O)[C@H]2S1(=O)=O (mixture of isomers) [Compound 17, Disodium Salt of 2β-[(E/Z)-(cyanoethenyl)]-6-[(Z)-carboxymethylene]-penicillinate 1,1-dioxide] | 6.76 µM | – | –
14 | CC1(COC(=O)Cc2ccc(O)c(O)c2)C(C(=O)O)N2C(=O)C(=CC(=O)O)C2S1(=O)=O (stereo not drawn) [Compound 8i, Disodium Salt of 2β-[(3′,4′-Dihydroxyphenyl)acetoxy]methyl-6-[(Z)-carboxymethylene]-1,1-dioxopenicillinate] | 0.37 µM | – | –
